Tested on: Rec1
Assay: Antiproliferative activity against human Rec1 cells assessed as inhibition of cell proliferation incubated for 72 hrs by Cell-titer-Glo luminescent cell viability assay
Format: functional, cell-based
Conditions: Rec1, 72 h
In the case of C=CC(=O)Nc1cccc(Cn2nc(-c3ccc(Oc4ccccc4)cc3)cc2C(=O)O)c1, the IC50 is reported as 33.1 µM.
With O=C(CCl)Nc1ccc(Cn2nc(-c3ccc(Oc4ccccc4)cc3)cc2CO)cc1 the IC50 was 0.4 µM.
For O=C(CCl)Nc1cccc(Cn2nc(-c3ccc(Oc4ccccc4)cc3)cc2CO)c1, the IC50 was 0.4 µM.
Compound C=CC(=O)Nc1cccc(Cn2nc(-c3ccc(Oc4ccccc4)cc3)cc2CO)c1 has an IC50 of 1.3 µM.
Compound C=CC(=O)Nc1ccc(Cn2nc(-c3ccc(Oc4ccccc4)cc3)cc2C(=O)OCC)cc1 has an IC50 of 2.8 µM.
Compound C/C=C/C(=O)Nc1cccc(Cn2nc(-c3ccc(Oc4ccccc4)cc3)cc2C(=O)OCC)c1 has an IC50 of 7.8 µM.
For C/C=C/C(=O)Nc1ccc(Cn2nc(-c3ccc(Oc4ccccc4)cc3)cc2C(=O)O)cc1, the IC50 was 23.6 µM.
Compound C=CC(=O)Nc1ccc(Cn2nc(-c3ccc(Oc4ccccc4)cc3)cc2C(=O)O)cc1 has an IC50 greater than 60 µM.
Compound C/C=C/C(=O)Nc1cccc(Cn2nc(-c3ccc(Oc4ccccc4)cc3)cc2CO)c1 has an IC50 of 3.4 µM.
In the case of C/C=C/C(=O)Nc1cccc(Cn2nc(-c3ccc(Oc4ccccc4)cc3)cc2C(=O)O)c1, the IC50 is reported as 26 µM.
With O=C(CCl)Nc1cccc(Cn2nc(-c3ccc(Oc4ccccc4)cc3)cc2C(=O)O)c1 the IC50 was 7.1 µM.
In the case of CCOC(=O)c1cc(-c2ccc(Oc3ccccc3)cc2)nn1Cc1ccc(NC(=O)CCl)cc1, the IC50 is reported as 0.4 µM.
C/C=C/C(=O)Nc1ccc(Cn2nc(-c3ccc(Oc4ccccc4)cc3)cc2CO)cc1 gave an IC50 of 12.2 µM.
In the case of C=CC(=O)Nc1cccc(Cn2nc(-c3ccc(Oc4ccccc4)cc3)cc2C(=O)OCC)c1, the IC50 is reported as 3.3 µM.
C/C=C/C(=O)Nc1ccc(Cn2nc(-c3ccc(Oc4ccccc4)cc3)cc2C(=O)OCC)cc1 gave an IC50 of 13.1 µM.

Tested on: JeKo-1
Assay: Antiproliferative activity against human JeKo1 cells assessed as inhibition of cell proliferation incubated for 72 hrs by Cell-titer-Glo luminescent cell viability assay
Format: functional, cell-based
Conditions: JeKo-1, 72 h
With C=CC(=O)Nc1cccc(Cn2nc(-c3ccc(Oc4ccccc4)cc3)cc2C(=O)O)c1 the IC50 was greater than 60 µM.
In the case of O=C(CCl)Nc1ccc(Cn2nc(-c3ccc(Oc4ccccc4)cc3)cc2CO)cc1, the IC50 is reported as 0.4 µM.
In the case of O=C(CCl)Nc1cccc(Cn2nc(-c3ccc(Oc4ccccc4)cc3)cc2CO)c1, the IC50 is reported as 0.4 µM.
In the case of C=CC(=O)Nc1cccc(Cn2nc(-c3ccc(Oc4ccccc4)cc3)cc2CO)c1, the IC50 is reported as 5.2 µM.
For C=CC(=O)Nc1ccc(Cn2nc(-c3ccc(Oc4ccccc4)cc3)cc2C(=O)OCC)cc1, the IC50 was 10.9 µM.
With C/C=C/C(=O)Nc1cccc(Cn2nc(-c3ccc(Oc4ccccc4)cc3)cc2C(=O)OCC)c1 the IC50 was 16.7 µM.
Work on C/C=C/C(=O)Nc1ccc(Cn2nc(-c3ccc(Oc4ccccc4)cc3)cc2C(=O)O)cc1 yielded an IC50 greater than 60 µM.
C=CC(=O)Nc1ccc(Cn2nc(-c3ccc(Oc4ccccc4)cc3)cc2C(=O)O)cc1 gave an IC50 greater than 60 µM.
Compound C/C=C/C(=O)Nc1cccc(Cn2nc(-c3ccc(Oc4ccccc4)cc3)cc2CO)c1 has an IC50 of 22.6 µM.
Work on C/C=C/C(=O)Nc1cccc(Cn2nc(-c3ccc(Oc4ccccc4)cc3)cc2C(=O)O)c1 yielded an IC50 greater than 60 µM.
With O=C(CCl)Nc1cccc(Cn2nc(-c3ccc(Oc4ccccc4)cc3)cc2C(=O)O)c1 the IC50 was 6.3 µM.
In the case of CCOC(=O)c1cc(-c2ccc(Oc3ccccc3)cc2)nn1Cc1ccc(NC(=O)CCl)cc1, the IC50 is reported as 0.4 µM.
In the case of C/C=C/C(=O)Nc1ccc(Cn2nc(-c3ccc(Oc4ccccc4)cc3)cc2CO)cc1, the IC50 is reported as greater than 60 µM.
Work on C=CC(=O)Nc1cccc(Cn2nc(-c3ccc(Oc4ccccc4)cc3)cc2C(=O)OCC)c1 yielded an IC50 of 7.6 µM.
C/C=C/C(=O)Nc1ccc(Cn2nc(-c3ccc(Oc4ccccc4)cc3)cc2C(=O)OCC)cc1 showed an IC50 of 52.5 µM.

Tested on: Maver1
Assay: Antiproliferative activity against human Maver1 cells assessed as inhibition of cell proliferation incubated for 72 hrs by Cell-titer-Glo luminescent cell viability assay
Format: functional, cell-based
Conditions: Maver1, 72 h
Work on C=CC(=O)Nc1cccc(Cn2nc(-c3ccc(Oc4ccccc4)cc3)cc2C(=O)O)c1 yielded an IC50 of 37.4 µM.
O=C(CCl)Nc1ccc(Cn2nc(-c3ccc(Oc4ccccc4)cc3)cc2CO)cc1 gave an IC50 of 0.4 µM.
Work on O=C(CCl)Nc1cccc(Cn2nc(-c3ccc(Oc4ccccc4)cc3)cc2CO)c1 yielded an IC50 of 0.4 µM.
With C=CC(=O)Nc1cccc(Cn2nc(-c3ccc(Oc4ccccc4)cc3)cc2CO)c1 the IC50 was 6.7 µM.
With C=CC(=O)Nc1ccc(Cn2nc(-c3ccc(Oc4ccccc4)cc3)cc2C(=O)OCC)cc1 the IC50 was 13.3 µM.
Compound C/C=C/C(=O)Nc1cccc(Cn2nc(-c3ccc(Oc4ccccc4)cc3)cc2C(=O)OCC)c1 has an IC50 of 14.2 µM.
For C/C=C/C(=O)Nc1ccc(Cn2nc(-c3ccc(Oc4ccccc4)cc3)cc2C(=O)O)cc1, the IC50 was greater than 60 µM.
C=CC(=O)Nc1ccc(Cn2nc(-c3ccc(Oc4ccccc4)cc3)cc2C(=O)O)cc1 showed an IC50 greater than 60 µM.
With C/C=C/C(=O)Nc1cccc(Cn2nc(-c3ccc(Oc4ccccc4)cc3)cc2CO)c1 the IC50 was 8.1 µM.
With C/C=C/C(=O)Nc1cccc(Cn2nc(-c3ccc(Oc4ccccc4)cc3)cc2C(=O)O)c1 the IC50 was 31.6 µM.
Work on O=C(CCl)Nc1cccc(Cn2nc(-c3ccc(Oc4ccccc4)cc3)cc2C(=O)O)c1 yielded an IC50 of 4.7 µM.
In the case of CCOC(=O)c1cc(-c2ccc(Oc3ccccc3)cc2)nn1Cc1ccc(NC(=O)CCl)cc1, the IC50 is reported as 0.4 µM.
C/C=C/C(=O)Nc1ccc(Cn2nc(-c3ccc(Oc4ccccc4)cc3)cc2CO)cc1 gave an IC50 of 48.4 µM.
With C=CC(=O)Nc1cccc(Cn2nc(-c3ccc(Oc4ccccc4)cc3)cc2C(=O)OCC)c1 the IC50 was 8.6 µM.
C/C=C/C(=O)Nc1ccc(Cn2nc(-c3ccc(Oc4ccccc4)cc3)cc2C(=O)OCC)cc1 showed an IC50 greater than 60 µM.

Tested on: Z-138
Assay: Antiproliferative activity against human Z138 cells assessed as inhibition of cell proliferation incubated for 72 hrs by Cell-titer-Glo luminescent cell viability assay
Format: functional, cell-based
Conditions: Z-138, 72 h
Work on C=CC(=O)Nc1cccc(Cn2nc(-c3ccc(Oc4ccccc4)cc3)cc2C(=O)O)c1 yielded an IC50 of 28.5 µM.
For O=C(CCl)Nc1ccc(Cn2nc(-c3ccc(Oc4ccccc4)cc3)cc2CO)cc1, the IC50 was 0.4 µM.
For O=C(CCl)Nc1cccc(Cn2nc(-c3ccc(Oc4ccccc4)cc3)cc2CO)c1, the IC50 was 0.4 µM.
Compound C=CC(=O)Nc1cccc(Cn2nc(-c3ccc(Oc4ccccc4)cc3)cc2CO)c1 has an IC50 of 6 µM.
In the case of C=CC(=O)Nc1ccc(Cn2nc(-c3ccc(Oc4ccccc4)cc3)cc2C(=O)OCC)cc1, the IC50 is reported as 12.5 µM.
With C/C=C/C(=O)Nc1cccc(Cn2nc(-c3ccc(Oc4ccccc4)cc3)cc2C(=O)OCC)c1 the IC50 was 8.9 µM.
Work on C/C=C/C(=O)Nc1ccc(Cn2nc(-c3ccc(Oc4ccccc4)cc3)cc2C(=O)O)cc1 yielded an IC50 greater than 60 µM.
C=CC(=O)Nc1ccc(Cn2nc(-c3ccc(Oc4ccccc4)cc3)cc2C(=O)O)cc1 showed an IC50 greater than 60 µM.
C/C=C/C(=O)Nc1cccc(Cn2nc(-c3ccc(Oc4ccccc4)cc3)cc2CO)c1 showed an IC50 of 5.7 µM.
For C/C=C/C(=O)Nc1cccc(Cn2nc(-c3ccc(Oc4ccccc4)cc3)cc2C(=O)O)c1, the IC50 was 24.1 µM.
Compound O=C(CCl)Nc1cccc(Cn2nc(-c3ccc(Oc4ccccc4)cc3)cc2C(=O)O)c1 has an IC50 of 9.1 µM.
For CCOC(=O)c1cc(-c2ccc(Oc3ccccc3)cc2)nn1Cc1ccc(NC(=O)CCl)cc1, the IC50 was 0.4 µM.
C/C=C/C(=O)Nc1ccc(Cn2nc(-c3ccc(Oc4ccccc4)cc3)cc2CO)cc1 showed an IC50 of 54.5 µM.
For C=CC(=O)Nc1cccc(Cn2nc(-c3ccc(Oc4ccccc4)cc3)cc2C(=O)OCC)c1, the IC50 was 7.8 µM.
C/C=C/C(=O)Nc1ccc(Cn2nc(-c3ccc(Oc4ccccc4)cc3)cc2C(=O)OCC)cc1 gave an IC50 greater than 60 µM.

Tested on: not listed separately
Assay: Antiproliferative activity against human Mino cells assessed as inhibition of cell proliferation incubated for 72 hrs by Cell-titer-Glo luminescent cell viability assay
Format: functional, cell-based
Conditions: not given
C=CC(=O)Nc1cccc(Cn2nc(-c3ccc(Oc4ccccc4)cc3)cc2C(=O)O)c1 showed an IC50 of 24.3 µM.
O=C(CCl)Nc1ccc(Cn2nc(-c3ccc(Oc4ccccc4)cc3)cc2CO)cc1 gave an IC50 of 0.4 µM.
With O=C(CCl)Nc1cccc(Cn2nc(-c3ccc(Oc4ccccc4)cc3)cc2CO)c1 the IC50 was 0.4 µM.
Compound C=CC(=O)Nc1cccc(Cn2nc(-c3ccc(Oc4ccccc4)cc3)cc2CO)c1 has an IC50 of 3.3 µM.
In the case of C=CC(=O)Nc1ccc(Cn2nc(-c3ccc(Oc4ccccc4)cc3)cc2C(=O)OCC)cc1, the IC50 is reported as 5.4 µM.
C/C=C/C(=O)Nc1cccc(Cn2nc(-c3ccc(Oc4ccccc4)cc3)cc2C(=O)OCC)c1 showed an IC50 of 16.5 µM.
C/C=C/C(=O)Nc1ccc(Cn2nc(-c3ccc(Oc4ccccc4)cc3)cc2C(=O)O)cc1 gave an IC50 of 23.1 µM.
Compound C=CC(=O)Nc1ccc(Cn2nc(-c3ccc(Oc4ccccc4)cc3)cc2C(=O)O)cc1 has an IC50 greater than 60 µM.
In the case of C/C=C/C(=O)Nc1cccc(Cn2nc(-c3ccc(Oc4ccccc4)cc3)cc2CO)c1, the IC50 is reported as 4.9 µM.
For C/C=C/C(=O)Nc1cccc(Cn2nc(-c3ccc(Oc4ccccc4)cc3)cc2C(=O)O)c1, the IC50 was 23.3 µM.
For O=C(CCl)Nc1cccc(Cn2nc(-c3ccc(Oc4ccccc4)cc3)cc2C(=O)O)c1, the IC50 was 11.7 µM.
Work on CCOC(=O)c1cc(-c2ccc(Oc3ccccc3)cc2)nn1Cc1ccc(NC(=O)CCl)cc1 yielded an IC50 of 0.6 µM.
In the case of C/C=C/C(=O)Nc1ccc(Cn2nc(-c3ccc(Oc4ccccc4)cc3)cc2CO)cc1, the IC50 is reported as 40.2 µM.
For C=CC(=O)Nc1cccc(Cn2nc(-c3ccc(Oc4ccccc4)cc3)cc2C(=O)OCC)c1, the IC50 was 5.7 µM.
C/C=C/C(=O)Nc1ccc(Cn2nc(-c3ccc(Oc4ccccc4)cc3)cc2C(=O)OCC)cc1 showed an IC50 of 33.2 µM.

Tested on: not listed separately
Assay: Half life in human liver microsomes further incubated of 5 to 60 mins in presence of NADPH regenerating system by LC/MS analysis
Conditions: liver microsomes
With O=C(CCl)Nc1cccc(Cn2nc(-c3ccc(Oc4ccccc4)cc3)cc2CO)c1 the half-life was 10.6 min.

Tested on: not listed separately
Assay: Stability in human liver microsomes assessed as compound remaining incubated of 60 mins in presence of NADPH regenerating system by LC/MS analysis
Conditions: liver microsomes
Work on O=C(CCl)Nc1cccc(Cn2nc(-c3ccc(Oc4ccccc4)cc3)cc2CO)c1 yielded a remaining at 1 h of 1.5%.

Tested on: not listed separately
Assay: in vitro
Conditions: human, liver microsomes
Description: Intrinsic clearance in human liver microsomes further incubated of 5 to 60 mins in presence of NADPH regenerating system by LC/MS analysis
O=C(CCl)Nc1cccc(Cn2nc(-c3ccc(Oc4ccccc4)cc3)cc2CO)c1 gave a microsomal CLint of 131 µL/min/mg.

Tested on: not listed separately
Assay: in vitro
Conditions: human, liver microsomes
Remark: another data set of the same source
Description: Hepatic clearance in human liver microsomes further incubated of 5 to 60 mins in presence of NADPH regenerating system by LC/MS analysis
O=C(CCl)Nc1cccc(Cn2nc(-c3ccc(Oc4ccccc4)cc3)cc2CO)c1 gave a CLint scaled of 118 mL/min/kg.
